Data taken from ChEMBL document CHEMBL5532734, “Lysosomal Degradation of Extracellular Targets: Innovations and Implications” (ACS Med Chem Lett, 2024).

Target: T1, Sortilin (Homo sapiens, UniProt Q99523)
T1 sequence (Q99523 whole entry): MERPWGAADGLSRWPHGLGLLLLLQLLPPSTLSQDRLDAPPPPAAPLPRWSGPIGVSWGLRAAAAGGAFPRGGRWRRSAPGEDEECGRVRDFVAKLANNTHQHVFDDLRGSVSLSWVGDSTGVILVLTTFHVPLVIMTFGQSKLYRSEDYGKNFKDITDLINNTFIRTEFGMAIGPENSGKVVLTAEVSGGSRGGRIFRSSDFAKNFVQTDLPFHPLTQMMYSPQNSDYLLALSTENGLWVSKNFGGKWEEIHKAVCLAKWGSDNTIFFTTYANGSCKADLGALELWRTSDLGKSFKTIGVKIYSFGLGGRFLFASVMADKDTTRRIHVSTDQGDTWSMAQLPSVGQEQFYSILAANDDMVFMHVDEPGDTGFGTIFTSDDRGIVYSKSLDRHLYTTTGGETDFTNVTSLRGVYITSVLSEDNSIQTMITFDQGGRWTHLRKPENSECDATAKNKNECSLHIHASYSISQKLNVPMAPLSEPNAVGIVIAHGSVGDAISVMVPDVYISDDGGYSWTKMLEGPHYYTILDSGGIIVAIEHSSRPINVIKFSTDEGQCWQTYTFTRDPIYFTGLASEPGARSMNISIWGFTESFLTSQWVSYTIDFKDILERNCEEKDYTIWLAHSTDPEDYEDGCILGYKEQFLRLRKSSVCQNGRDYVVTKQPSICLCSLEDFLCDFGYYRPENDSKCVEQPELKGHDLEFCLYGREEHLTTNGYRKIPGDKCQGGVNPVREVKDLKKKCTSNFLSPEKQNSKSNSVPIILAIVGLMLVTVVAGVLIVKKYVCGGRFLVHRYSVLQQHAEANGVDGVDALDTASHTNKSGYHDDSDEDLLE
Experiment: Binding affinity to 6-His tagged sortilin (unknown origin) assessed as equilibrium dissociation constant by MST analysis

Compound	Kd [nM]
C[C@@H]1CN(c2ncc(-c3ccc4c(n3)N(Cc3cccnc3C#N)C(C)(C)C4=O)cn2)CCN1C(=O)CNC(=O)CCCCCCCCCNC(=O)c1cccc(Oc2ccc(C(=O)N[C@@H](CCC(C)(C)C)C(=O)O)cn2)c1	< 1
CC(C)(C)CC[C@H](NC(=O)c1ccc(Oc2cccc(C(=O)NCCOCCOCCOCCOCCOCCNc3ncc(-c4ccc5c(n4)N(Cc4cccnc4C#N)C(C)(C)C5=O)cn3)c2)nc1)C(=O)O	< 1
C[C@@H]1CN(c2ncc(-c3ccc4c(n3)N(Cc3cccnc3C#N)C(C)(C)C4=O)cn2)CCN1C(=O)COCCCCCCCCNC(=O)c1cccc(Oc2ccc(C(=O)N[C@@H](CCC(C)(C)C)C(=O)O)cn2)c1	< 1
CC(C)(C)CC[C@H](NC(=O)c1ccc(Oc2cccc(OCCOCCOCCOCCOCCOCCOCCNC(=O)CCC[C@@H]3SC[C@@H]4NC(=O)N[C@@H]43)c2)nc1)C(=O)O	1

Now from value to compound:

Kd [nM]	Compound
< 1	CC(C)(C)CC[C@H](NC(=O)c1ccc(Oc2cccc(C(=O)NCCOCCOCCOCCOCCOCCOc3ncc(-c4ccc5c(n4)N(Cc4cccnc4C#N)C(C)(C)C5=O)cn3)c2)nc1)C(=O)O
< 1	C[C@@H]1CN(c2ncc(-c3ccc4c(n3)N(Cc3cccnc3C#N)C(C)(C)C4=O)cn2)CCN1C(=O)COCCCCNC(=O)c1cccc(Oc2ccc(C(=O)N[C@@H](CCC(C)(C)C)C(=O)O)cn2)c1
